In patent US5324502A, “Radiopharmaceuticals for imaging the heart” (priority 1992, dated 1994):
Read-outs that look alike come from different tables or passages of the source.

How the values were obtained:
[1] = Octanol/water partition coefficient of radiolabeled gallium complexes; type: physicochemical
Method: Octanol/water partition coefficients were measured by vortex mixing 1 mL of 1-octanol and 1 mL of isotonic Tris buffer (pH 7.0) with a 1-5 μL sample of the radiolabeled gallium complex. Following centrifugation at >1200 g for 5 minutes, the octanol and aqueous phases were sampled and counted in an automatic well counter.

[2] = rat
Method: The gallium-67 complexes are prepared by ligand exchange from gallium-67 chloride, employing the tris(acetylacetonato)gallium(III) complex as an intermediate. The Ga-67 acetylacetonate in ethanol is reacted with the chelating ligand or ligand precursor at elevated temperature to form rapidly the desired gallium radiopharmaceutical. […] The biodistribution of several radiopharmaceuticals was determined in rats following intravenous injection using techniques previously described (M. A. Green, Nuclear Medicine and Biology 14:59-61, 1987; E. John and M. A. Green, J. Medicinal Chemistry, 33:1764-1770, 1990).
Under ether anesthesia, 1 to 3 μCi (0.1-0.2 mL) of no-carrier-added Ga-67 compound was administered by bolus injection into the femoral vein of male Sprague-Dawley rats. The ether anesthetized rats were sacrificed by decapitation at given time intervals post-injection, organs of interest were removed, weighed, and the gallium-67 activity counted. The biodistribution was calculated as a percentage of the injected dose per gram of tissue and percentage of injected dose per organ for each sample.

^67 GaL^+ L = [(4,6-MeO2 Sal)2 DM-BAPEN, ^67 GaL^+ L = [bis(4,6-dimethoxysalicylaldimino)-N,N'-bis(2,2'-dimethyl-3-aminopropyl)-ethylenediamine]]
log P ([1]; 1-octanol / isotonic Tris buffer pH 7.0): 2.73 | % Injected Dose per Gram Tissue, Blood ([2]; i.v., 1 min): 1.30 ± 0.45 % Injected Dose per Gram Tissu | % Injected Dose per Gram Tissue, Brain ([2]; i.v., 1 min): 0.06 ± 0.01 % Injected Dose per Gram Tissu | % Injected Dose per Gram Tissue, Heart ([2]; i.v., 1 min): 1.31 ± 0.17 % Injected Dose per Gram Tissu | % Injected Dose per Gram Tissue, Kidney (one) ([2]; i.v., 1 min): 10.62 ± 0.94 % Injected Dose per Gram Tissu | % Injected Dose per Gram Tissue, Liver ([2]; i.v., 1 min): 5.82 ± 0.93 % Injected Dose per Gram Tissu | % Injected Dose per Gram Tissue, Lungs ([2]; i.v., 1 min): 1.24 ± 0.20 % Injected Dose per Gram Tissu | % Injected Dose per Gram Tissue, Spleen ([2]; i.v., 1 min): 1.59 ± 0.57 % Injected Dose per Gram Tissu | % Injected Dose per Organ, Blood ([2]; i.v., 1 min): 18.76 ± 6.91 % Injected Dose per Organ | % Injected Dose per Organ, Brain ([2]; i.v., 1 min): 0.10 ± 0.02 % Injected Dose per Organ | % Injected Dose per Organ, Heart ([2]; i.v., 1 min): 1.03 ± 0.17 % Injected Dose per Organ | % Injected Dose per Organ, Kidney (one) ([2]; i.v., 1 min): 8.33 ± 0.80 % Injected Dose per Organ | % Injected Dose per Organ, Liver ([2]; i.v., 1 min): 50.62 ± 5.72 % Injected Dose per Organ | % Injected Dose per Organ, Lungs ([2]; i.v., 1 min): 1.63 ± 0.47 % Injected Dose per Organ | % Injected Dose per Organ, Spleen ([2]; i.v., 1 min): 1.07 ± 0.35 % Injected Dose per Organ | % injected dose in heart, 1 min ([2]; i.v., 1 min, preliminary studies): 1.03 ± 0.17 % injected dose | % Injected Dose per Gram Tissue, Blood ([2]; i.v., 15 min): 0.13 ± 0.01 % Injected Dose per Gram Tissu | % Injected Dose per Gram Tissue, Brain ([2]; i.v., 15 min): 0.03 ± 0.01 % Injected Dose per Gram Tissu | % Injected Dose per Gram Tissue, Heart ([2]; i.v., 15 min): 1.23 ± 0.07 % Injected Dose per Gram Tissu | % Injected Dose per Gram Tissue, Kidney (one) ([2]; i.v., 15 min): 10.49 ± 0.92 % Injected Dose per Gram Tissu | % Injected Dose per Gram Tissue, Liver ([2]; i.v., 15 min): 3.92 ± 0.20 % Injected Dose per Gram Tissu | % Injected Dose per Gram Tissue, Lungs ([2]; i.v., 15 min): 0.63 ± 0.03 % Injected Dose per Gram Tissu | % Injected Dose per Gram Tissue, Spleen ([2]; i.v., 15 min): 1.96 ± 0.32 % Injected Dose per Gram Tissu | % Injected Dose per Organ, Blood ([2]; i.v., 15 min): 1.97 ± 0.15 % Injected Dose per Organ | % Injected Dose per Organ, Brain ([2]; i.v., 15 min): 0.04 ± 0.01 % Injected Dose per Organ | % Injected Dose per Organ, Heart ([2]; i.v., 15 min): 0.93 ± 0.04 % Injected Dose per Organ | % Injected Dose per Organ, Kidney (one) ([2]; i.v., 15 min): 8.77 ± 0.60 % Injected Dose per Organ | % Injected Dose per Organ, Liver ([2]; i.v., 15 min): 36.83 ± 2.91 % Injected Dose per Organ | % Injected Dose per Organ, Lungs ([2]; i.v., 15 min): 0.75 ± 0.05 % Injected Dose per Organ | % Injected Dose per Organ, Spleen ([2]; i.v., 15 min): 1.25 ± 0.20 % Injected Dose per Organ | % Injected Dose per Gram Tissue, Blood ([2]; i.v., 120 min): 0.03 ± 0.01 % Injected Dose per Gram Tissu | % Injected Dose per Gram Tissue, Brain ([2]; i.v., 120 min): 0.02 ± 0.01 % Injected Dose per Gram Tissu | % Injected Dose per Gram Tissue, Heart ([2]; i.v., 120 min): 1.36 ± 0.09 % Injected Dose per Gram Tissu | % Injected Dose per Gram Tissue, Kidney (one) ([2]; i.v., 120 min): 6.86 ± 0.54 % Injected Dose per Gram Tissu | % Injected Dose per Gram Tissue, Liver ([2]; i.v., 120 min): 0.42 ± 0.02 % Injected Dose per Gram Tissu | % Injected Dose per Gram Tissue, Lungs ([2]; i.v., 120 min): 0.58 ± 0.06 % Injected Dose per Gram Tissu | % Injected Dose per Gram Tissue, Spleen ([2]; i.v., 120 min): 1.59 ± 0.16 % Injected Dose per Gram Tissu | % Injected Dose per Organ, Blood ([2]; i.v., 120 min): 0.45 ± 0.03 % Injected Dose per Organ | % Injected Dose per Organ, Brain ([2]; i.v., 120 min): 0.04 ± 0.01 % Injected Dose per Organ | % Injected Dose per Organ, Heart ([2]; i.v., 120 min): 0.01 ± 0.06 % Injected Dose per Organ | % Injected Dose per Organ, Kidney (one) ([2]; i.v., 120 min): 5.40 ± 0.24 % Injected Dose per Organ | % Injected Dose per Organ, Liver ([2]; i.v., 120 min): 3.91 ± 0.19 % Injected Dose per Organ | % Injected Dose per Organ, Lungs ([2]; i.v., 120 min): 0.64 ± 0.06 % Injected Dose per Organ | % Injected Dose per Organ, Spleen ([2]; i.v., 120 min): 0.97 ± 0.07 % Injected Dose per Organ | % injected dose in heart, 2 h ([2]; i.v., 2 h, preliminary studies): 1.01 ± 0.06 % injected dose | Heart/Blood ([2]; ratio, i.v., 1 min): 1.11 ± 0.40 | Heart/Liver ([2]; ratio, i.v., 1 min): 0.23 ± 0.06 | Heart/Lungs ([2]; ratio, i.v., 1 min): 1.07 ± 0.12 | Heart/Blood ([2]; ratio, i.v., 15 min): 9.65 ± 0.53 | Heart/Liver ([2]; ratio, i.v., 15 min): 0.32 ± 0.02 | Heart/Lungs ([2]; ratio, i.v., 15 min): 1.96 ± 0.20 | Heart/Blood ([2]; ratio, i.v., 120 min): 44.46 ± 1.63 | Heart/Liver ([2]; ratio, i.v., 120 min): 3.24 ± 0.07 | Heart/Lungs ([2]; ratio, i.v., 120 min): 2.34 ± 0.14

COc1ccc([O-])c(C=NCCCNCCNCCCN=Cc2cc(OC)ccc2[O-])c1.[67Ga+3] [(5-MeOSal)2 BAPEN, ^67 GaL^+ L = [bis(5-methoxysalicylaldimino)-N,N'-bis(3-aminopropyl)ethylenediamine]]
log P ([1]; octanol/tris buffer, pH 7): 0.53 | % Injected Dose per Gram Tissue, Brain ([2]; in vivo, iv): 0.00 ± 0.00 | % injected dose in heart, 1 min ([2]; in vivo, iv): 0.34 ± 0.03 % injected dose | % injected dose in heart, 2 h ([2]; in vivo, iv): 0.23 ± 0.03 % injected dose | % Injected Dose per Gram Tissue, Blood ([2]; in vivo, iv, 1 min): 0.52 ± 0.08 | % Injected Dose per Gram Tissue, Brain ([2]; in vivo, iv, 1 min): 0.02 ± 0.01 | % Injected Dose per Gram Tissue, Heart ([2]; in vivo, iv, 1 min): 0.46 ± 0.03 | % Injected Dose per Gram Tissue, Kidney (one) ([2]; in vivo, iv, 1 min): 9.31 ± 0.32 | % Injected Dose per Gram Tissue, Liver ([2]; in vivo, iv, 1 min): 3.01 ± 0.51 | % Injected Dose per Gram Tissue, Lungs ([2]; in vivo, iv, 1 min): 0.55 ± 0.14 | % Injected Dose per Gram Tissue, Spleen ([2]; in vivo, iv, 1 min): 0.25 ± 0.02 | Heart/Blood ([2]; in vivo, iv, 1 min): 0.89 ± 0.12 | % Injected Dose per Gram Tissue, Blood ([2]; in vivo, iv, 2 h): 0.08 ± 0.01 | % Injected Dose per Gram Tissue, Heart ([2]; in vivo, iv, 2 h): 0.33 ± 0.03 | % Injected Dose per Gram Tissue, Kidney (one) ([2]; in vivo, iv, 2 h): 1.57 ± 0.13 | % Injected Dose per Gram Tissue, Liver ([2]; in vivo, iv, 2 h): 0.78 ± 0.01 | % Injected Dose per Gram Tissue, Lungs ([2]; in vivo, iv, 2 h): 0.16 ± 0.02 | % Injected Dose per Gram Tissue, Spleen ([2]; in vivo, iv, 2 h): 0.07 ± 0.01 | Heart/Blood ([2]; in vivo, iv, 2 h): 4.33 ± 0.28 | % Injected Dose per Gram Tissue, Blood ([2]; in vivo, iv, […]): 0.15 ± 0.04 | % Injected Dose per Gram Tissue, Heart ([2]; in vivo, iv, […]): 0.36 ± 0.01 | % Injected Dose per Gram Tissue, Kidney (one) ([2]; in vivo, iv, […]): 4.65 ± 1.29 | % Injected Dose per Gram Tissue, Liver ([2]; in vivo, iv, […]): 2.09 ± 0.78 | % Injected Dose per Gram Tissue, Lungs ([2]; in vivo, iv, […]): 0.22 ± 0.22 | % Injected Dose per Gram Tissue, Spleen ([2]; in vivo, iv, […]): 0.09 ± 0.01 | Heart/Blood ([2]; in vivo, iv, […]): 2.61 ± 0.55
